Source: patent US11382880B2, “Method for improving digestive health” (Brightseed, Inc., priority 2019, dated 2022)

Key:
HNF4α [1] = target: T1, HNF4α (Homo sapiens, UniProt P41235); design: endogenous in cells; host or cells: T6PNE engineered pancreatic cells; details: Lee, et al. (2013); cited from earlier work
T1 sequence (P41235 1-474): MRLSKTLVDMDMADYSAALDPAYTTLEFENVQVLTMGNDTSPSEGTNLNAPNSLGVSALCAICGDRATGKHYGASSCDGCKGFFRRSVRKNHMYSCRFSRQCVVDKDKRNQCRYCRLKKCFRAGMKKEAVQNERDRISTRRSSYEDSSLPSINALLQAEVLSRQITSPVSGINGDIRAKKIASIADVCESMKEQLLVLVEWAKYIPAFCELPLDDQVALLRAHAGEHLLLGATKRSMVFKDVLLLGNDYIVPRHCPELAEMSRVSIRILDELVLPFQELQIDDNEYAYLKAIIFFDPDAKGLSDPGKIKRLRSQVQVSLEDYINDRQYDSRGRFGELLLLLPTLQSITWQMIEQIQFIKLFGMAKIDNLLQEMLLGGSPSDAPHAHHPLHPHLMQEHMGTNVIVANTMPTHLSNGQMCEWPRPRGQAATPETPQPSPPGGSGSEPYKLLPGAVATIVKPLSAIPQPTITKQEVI

HNF4α [2] = target: T1, HNF4α; test: Insulin promoter-reporter assay measuring HNF4α activity (T6PNE engineered pancreatic cell); type: cell-based; design: endogenous in cells; host or cells: T6PNE engineered pancreatic cells; details: for HNF4α modulator activity in screening: screening of predicted plant compounds in the HNF4α assay
Protocol: FIG. 1 illustrates a dose-response analysis of N-trans-caffeoyltyramine, N-trans-feruloyltyramine and p-coumaroyltyramine in an assay measuring insulin promoter activity. Dimethylsulfoxide (DMSO) and alverine (20 μM) were used as negative and positive controls, respectively.
The tyramine containing hydroxycinnamic acid amide of this disclosure are analogs of lead compounds identified in traditional screening assays for agents that modulate known signaling pathways. […] While not wishing to be bound by theory, it is believed that the tyramine containing hydroxycinnamic acid amides of this disclosure increase HNF4α activity as a result of higher affinity for the HNF4α binding site than the natural ligand, palmitic acid, which down regulates HNF4α activity. Accordingly, by increasing HNF4α activity, the compounds of this disclosure are of use in improving heal thy digestive function, thereby addressing the underlying pathogenesis of gastrointestinal disorders such as IBD, UC, and CD. Using the composition of this disclosure, health and well-being are improved and promoted.
Given the role of HNF4α in maintaining a healthy metabolism in humans, test compounds were screened for activity as HNF4α agonists (either direct or indirect effects). Using a known insulin promoter-reporter assay, Kiselyuk and colleagues (2010. J. Biomol. Screen 15(6): 663-70), screened a library of compounds for activity to promote insulin activation. […] The OTC promoter is known to be responsive to HNF4α in transient transfection assays (Inoue, et al. (2002) J. Biol. Chem. 277:25257-65).
Plant compounds in the top 10th percentile of similarity to the 18 target structures were selected and compounds predicted to be potential agonists of HNF4α activity given their chemical structural features were screened in the HNF4α assay. […] Due to hydroxyl derivatization of both phenyl rings, N-transcaffeoyltyramine is less lipophilic and therefore expected to be more bioavailable.

HNF4α mRNA = HNF4α mRNA levels by quantitative PCR; type: cell-based; details: FIG. 2
Protocol: FIG. 2 illustrates the effect of N-trans-caffeoyltyramine, N-trans-feruloyltyramine and p-coumaroyltyramine on HNF4α mRNA levels as determined by quantitative PCR. DMSO and alverine (20 μM) were used as negative and positive controls, respectively.
Expression of Insulin and HNF4α. RNA was purified using a RNEASY® chromatographic separation and isolation kits (Qiagen), and converted to cDNA using the gScript™ cDNA SuperMix (Quanta Biosciences). Q-PCR was conducted with cDNA corresponding to 2 μg of RNA using an Optic on Real-Time System (MJ Research) and QPCR SuperMix (BioPioneer). See All mRNA values were normalized to 18S rRNA values and are expressed as fold changes over vehicle-treated control.

Intestine = test: Histological examination of intestine, gross morphology; type: in vivo; details: mice treated with DMSO or N-trans-caffeoyltyramine
Description: (§1) Intestine from mice treated with DMSO or N-trans-caffeoyltyramine were examined histologically. Gross morphological appearance was unchanged. […] In both, HNF4α was highly expressed in the crypt, with much less being detectable in the villi (see FIG. 4). […] Paneth cells are specialized secretory cells that play a critical role in defenses against intestinal microbes. To that end, they secrete a variety of antimicrobial peptides. Of note, Paneth cells play an important role in IBD pathogenesis. High fat diet has been reported to reduce the number of Paneth cells, and our studies reproduced that finding (see FIG. 4), but the mechanism by which that occurs has not been understood.

pH Stability Assessment = type: physicochemical; details: pH 2, 7.4, 8.5 and 10; 37° C.; 0.5 and 72 hours; HPLC peak area at 280 nm
Protocol: pH Stability Assessment. Individual stock solutions were prepared in DMSO at concentrations of 10 mg/mL. Four different buffer solutions were prepared to achieve solutions with a pH of 2, 7.4, 8.5 and 10. For each pH assay, 5 μL of stock solution was added to 245 μL of buffered solution to a 2 mL tube, vortexed and incubated in a 37° C. water bath. At each timepoint, 50 μL aliquots were taken, neutralized and analyzed via HPLC analysis using a DAD detector at 280 nm. The fold change of the peak area at 280 nm was analyzed for the initial and final timepoint, 0.5 and 72 hours, respectively.

Paneth cells = test: Number of Paneth cells in the intestine of DIO mice; type: in vivo; details: DIO mice (high fat diet)
Description: FIG. 5 illustrates paneth cells are increased in the intestine of DIO mice treated with NCT.
as §1

[3] = Bioavailability determination in male C57BL/6 mice; type: in vivo; details: mouse, whole blood, IV 2.0 mg/kg, oral 30.0 mg/kg, IP 30 mg/kg, route of the printed value not stated
Protocol: Bioavailability Determinations. Male C57BL/6 mice were administered N-trans-caffeoyl tyramine or N-transferuloyl tyramine via IV, intraperitoneal or oral route (three mice for each route) (Table 2).
A blood sample from each mouse was drawn at 0.25, 0.5, 1, 2, 4, 6 and 24 hours after administration. An 8 μL aliquot of blood was used for analysis. After adding 200 μL of an internal standard comprising 100 ng/mL Labetalol, 100 ng/mL dexamethasone, 100 ng/mL tolbutamide, 100 ng/mL Verapamil, 100 ng/mL Glyburide, and 100 ng/mL Celecoxib in ACN, the mixture was vortex-mixed and centrifuged at 12000 rpm for 15 minutes at 4° C. to pellet precipitated protein. Four μL of the supernatant was injected for LC-MS/MS analysis. Bioavailability (%) was calculated using AUC0-inf (% AUCExtra<20%) or AUC0-last(% AUCExtra>20%) with nominal dose.

HNF4α [4] = test: HNF4α expression in the intestine of DIO mice; type: in vivo; details: villi and crypt
Description: FIG. 4 illustrates HNF4α is increased in the intestine of DIO mice treated with NCT.
as §1

HNF4α [5] = test: Intestinal HNF4α expression in C57BL/6 mice after IP dosing; type: in vivo; details: IP twice a day for 14 days
Protocol: Primary Antibodies. HNF4α antibodies were used (#sc-6556, Santa Cruz Biotechnology; Santa Cruz, Calif. and #3113, Cell Signaling Technology; Danvers, Mass.). For fluorescent imaging, samples were incubated with ALEXA FLUOR® 488 green-fluorescent dye or Rhodamine labeled anti-mouse, rabbit or goat and nuclei were counterstained with DAPI (4′,6-diamidino-2-phenylindole). […] were analyzed with a conventional inverted microscope (Olympus, PlanFl 40×/0.60) or with a confocal microscope equipped with a krypton/argon laser.
To confirm the in vivo […] samples were harvested and stained to visualize HNFα expression, ZO-1 and DAPI staining.

CaCo-2 cells = test: TNF-α induced tight junction damage in CaCo-2 monolayer, ZO-1 staining; type: cell-based; details: 200 ng or 300 ng TNF-α
Protocol: TNF-α is an inflammatory cytokine that increases intestinal tight junction permeability. To analyze the effect of N-trans-caffeoyltyramine on tight junctions, 200 ng or 300 ng TNF-α was added to a monolayer of epithelial CaCo-2 cells to induced tight junction damage. After TNF-α exposure, N-trans-caffeoyltyramine was added and tight junction formation was determined by antibody staining for zonula occludens (ZO) −1. […] The CaCo-2 cells was sorted for high TNF-α expression with compromised integrity of tight junctions. Increasing concentration of exogenous TNF-α from 200 ng to 300 ng reduced ZO-1 staining.

HNF4α [6] = target: T1, HNF4α; details: cited from earlier work
HNF4α [7] = target: T1, HNF4α; design: endogenous in cells; host or cells: T6PNE engineered pancreatic cells; details: Kiselyuk, et al. (2012); cited from earlier work

SMILES: CCN(CCCc1ccccc1)CCCc1ccccc1 [Alverine]
- Activity as HNF4α activators (HNF4α [1]): activity as HNF4α activators

SMILES: CC(Cc1cccc(C(F)(F)F)c1)NCCOC(=O)c1ccccc1 (stereo not shown) [Benfluorex]
- Activity as HNF4α activators (HNF4α [1]): activity as HNF4α activators

SMILES: O=C(/C=C\c1ccc(O)c(O)c1)NCCc1ccc(O)cc1 [N-cis-caffeoyltyramine]
- HNF4α modulator activity in screening (HNF4α [2]): able to act as HNF4α modulators

SMILES: O=C(/C=C/c1ccc(O)cc1)NCCc1ccc(O)c(O)c1 [N-coumaroyldopamine]
- HNF4α gene expression (quantitative PCR) (HNF4α mRNA): inactive

SMILES: O=C(/C=C/c1ccc(O)c(O)c1)NCCc1ccc(O)cc1 [N-trans-caffeoyltyramine]
- Gross morphological appearance of intestine (Intestine): unchanged
- pH Stability (pH Stability Assessment): Acid Stable
- Number of Paneth cells (Paneth cells): complete recovery in the number of Paneth cells
- Number of Paneth cells (Paneth cells; listed as NCT): increased
- bioavailability [3]: ~11%
- HNF4α expression in intestine (HNF4α [4]): large increase in HNF4α expression throughout
- HNF4α expression in intestine (HNF4α [4]; listed as NCT): increased
- Potency in activating HNF4α compared with Alverine (HNF4α [2]; FIG. 1, alverine 20 μM positive control): roughly an order-of-magnitude more potent than Alverine
- HNF4α modulator activity in screening (HNF4α [2]): able to act as HNF4α modulators
- HNF4α expression in intestinal lining (HNF4α [5]): induced HNF4α expression in the intestinal lining
- HNF4α gene expression (quantitative PCR) (HNF4α mRNA): upregulated
- Effect on TNF-α reduced ZO-1 staining (tight junctions) (CaCo-2 cells): reversed the effects of TNF-α on ZO-1

SMILES: COc1cc(/C=C/C(=O)NCC(O)c2ccc(O)cc2)ccc1O (stereo not drawn) [N-trans-feruloyloctopamine]
- HNF4α gene expression (quantitative PCR) (HNF4α mRNA): inactive

SMILES: COc1cc(/C=C/C(=O)NCCc2ccc(O)cc2)ccc1O [N-trans-feruloyltyramine]
- pH Stability (pH Stability Assessment): Stable
- bioavailability [3]: ~7%
- HNF4α modulator activity in screening (HNF4α [2]): able to act as HNF4α modulators
- HNF4α gene expression (quantitative PCR) (HNF4α mRNA): upregulated

SMILES: COc1cc(/C=C\C(=O)NCCc2ccc(O)cc2)ccc1O [cis-feruloyltyramine]
- HNF4α gene expression (quantitative PCR) (HNF4α mRNA): inactive

SMILES: CCN(CCCCc1ccccc1)CCc1ccccc1 [compound 1]
- HNF4α agonistic activity in OTC promoter assay (HNF4α [6]): HNF4α agonistic activity
- Insulin activation in insulin promoter-reporter screen (HNF4α [7]): insulin activator

SMILES: O=C(/C=C/c1ccc(O)cc1)NCCc1ccc(O)cc1 [p-coumaroyltyramine]
- pH Stability (pH Stability Assessment): Acid Stable
- HNF4α modulator activity in screening (HNF4α [2]): able to act as HNF4α modulators
- HNF4α gene expression (quantitative PCR) (HNF4α mRNA): upregulated

SMILES: O=C(/C=C/c1ccc(O)cc1)NCC(O)c1ccc(O)cc1 (stereo not shown) [pcoumaroyloctopamine]
- HNF4α gene expression (quantitative PCR) (HNF4α mRNA): inactive
